# Data published in patent US4309437A, “Pyrrolo-benzodiazepine compounds and anti-tumor composition thereof” (priority 1979, dated 1982).
# Counter-ions that a name gives are not always drawn.
# Columns and labels:
# [1] = Toxicity test (LD50, intraperitoneal, mice); format: in vivo, mouse; details: mouse, in vivo, ip, dd-strain male mice, 18 to 21 g, 3 weeks observation, Probit analysis
# Protocol: (§1) Toxicity test: The compound being tested is suspended in physiological saline in varied concentrations by the serial dilution method (common ratio, 1:1.5). Each solution was administered intraperitoneally to groups of 8 to 12 dd-strain male mice, each 18 to 21 g in body weight. The mice were then bred on a usual diet and water. The LD50 value was determined by Probit analysis by observing dead and alive for 3 weeks after the administration.
# dd-strain male mice = assay: Toxicity test (LD50, intraperitoneal, mice); format: in vivo, mouse; details: 18 to 21 g, 3 weeks observation, Probit analysis, 30240 min
# Protocol: as §1
# [2] = known, in words; cited from earlier work
# [3] = known, in words; cited from earlier work; remark: listed apart in the source
# [4] = said to be exhibited due to side effects; cited from earlier work
smiles,measurement,setting,value
"COC(=O)Oc1c(C)ccc2c1NC(S(=O)(=O)O)C1CC(/C=C/C(N)=O)=CN1C2=O (stereo not shown) [R1=COOCH3, R2=H, R3=SO3 H, 5,10,11,11a-tetrahydro-8-methyl-9-methoxycarbonyloxy-5-oxo-11-sulfo-1H-pyrrolo[2,1-c][1,4]-benzodiazepin-2-acrylamide]",LD50 at 504 h,[1],2.55 mg/kg
"CC(=O)Oc1c(C)ccc2c1NC(S(=O)O)C1CC(/C=C/C(N)=O)=CN1C2=O (stereo not shown) [R1=COCH3, R2=H, R3=SO2 Na, 5,10,11,11a-tetrahydro-9-acetoxy-8-methyl-5-oxo-11-sulfino-1H-pyrrolo[2,1-c][1,4]benzodiazepin-2-acrylamide sodium salt]",LD50,dd-strain male mice; sodium salt,2.60 mg/kg
"Cc1ccc2c(c1O)NC(S(=O)O)C1CC(/C=C/C(N)=O)=CN1C2=O (stereo not shown) [R1=H, R2=H, R3=SO2 Na]",LD50,dd-strain male mice,2.28 mg/kg
"CC(=O)Oc1c(C)ccc2c1N(C(C)=O)C(S(=O)O)C1CC(/C=C/C(N)=O)=CN1C2=O (stereo not shown) [R1=COCH3, R2=COCH3, R3=SO2 Na]",LD50 at 504 h,[1],2.71 mg/kg
"Cc1ccc2c(c1O)NC(S(=O)(=O)O)C1CC(/C=C/C(N)=O)=CN1C2=O (stereo not shown) [R1=H, R2=H, R3=SO3 H, 5,10,11,11a-Tetrahydro-9-hydroxy-8-methyl-5-oxo-11-sulfo-1H-pyrrolo[2,1-c][1,4]benzodiazepin-2-acrylamide]",LD50 at 504 h,[1],2.21 mg/kg
"Cc1ccc2c(c1O)N=CC1CC(/C=C/C(N)=O)=CN1C2=O (stereo not shown) [P'B'A', 5,11,11a-trihydro-9-hydroxy-8-methyl-5-oxo-1H-pyrrolo-[2,1-c][1,4]benzodiazepin-2-acrylamide]",antitumor activity,[2],very strong antitumor activity
same,antibacterial activity,[3],antibacterial and antitumor activities are exhibited
same,"toxicity, particularly cardiotoxicity",[4],"strong toxicity, particularly cardiotoxicity"
"CC(=O)N1c2c(ccc(C)c2O)C(=O)N2C=C(/C=C/C(N)=O)CC2C1S(=O)(=O)O (stereo not shown) [R1=H, R2=COCH3, R3=SO3 Na, 5,10,11,11a-tetrahydro-10-acetyl-9-hydroxy-8-methyl-5-oxo-11-sulfo-1H-pyrrolo[2,1-c][1,4]benzodiazepin-2-acrylamide sodium salt]",LD50 at 504 h,[1],2.51 mg/kg
"CC(=O)Oc1c(C)ccc2c1NC(S(=O)(=O)O)C1CC(/C=C/C(N)=O)=CN1C2=O (stereo not shown) [R1=COCH3, R2=H, R3=SO3 H, 5,10,11,11a-tetrahydro-9-acetoxy-8-methyl-5-oxo-11-sulfo-1H-pyrrolo[2,1-c][1,4]benzodiazepin-2-acrylamide]",LD50 at 504 h,[1],2.68 mg/kg
"CC(=O)N1c2c(ccc(C)c2O)C(=O)N2C=C(/C=C/C(N)=O)CC2C1S(=O)(=O)O (stereo not shown) [R1=H, R2=COCH3, R3=SO3 H, 5,10,11,11a-Tetrahydro-10-acetyl-9-hydroxy-8-methyl-5-oxo-11-sulfo-1H-pyrrolo[2,1-c][1,4]benzodiazepin-2-acrylamine]",LD50,dd-strain male mice,2.43 mg/kg
"Cc1ccc2c(c1O)NC(O)C1CC(/C=C/C(N)=O)=CN1C2=O (single isomer, unassigned) [PBA, 5,10,11,11a-tetrahydro-9,11-dihydroxy-8-methyl-5-oxo-1H-pyrrolo[2,1-c][1,4]-benzodiazepin-2-acrylamide]",LD50 at 504 h,[1],0.73 mg/kg
same,antitumor activity,[2],very strong antitumor activity
same,antibacterial activity,[3],antibacterial and antitumor activities are exhibited
same,"toxicity, particularly cardiotoxicity",[4],"strong toxicity, particularly cardiotoxicity"
"Cc1ccc2c(c1OC(N)=O)NC(S(=O)O)C1CC(/C=C/C(N)=O)=CN1C2=O (stereo not shown) [R1=CONH2, R2=H, R3=SO2 H, 5,10,11,11a-Tetrahydro-9-carbamyloxy-8-methyl-5-oxo-11-sulfino-1H-pyrrolo[2,1-c][1,4]benzodiazepin-2-acrylamide]",LD50 at 504 h,[1],2.37 mg/kg
"CC(=O)N1c2c(ccc(C)c2O)C(=O)N2C=C(/C=C/C(N)=O)CC2C1S(=O)O (stereo not shown) [R1=H, R2=COCH3, R3=SO2 H, 5,10,11,11a-tetrahydro-10-acetyl-9-hydroxy-8-methyl-5-oxo-11-sulfino-1H-pyrrolo-[2,1-c][1,4]benzodiazepin-2-acrylamide]",LD50 at 504 h,[1],2.5 mg/kg
"CC(=O)N1c2c(ccc(C)c2OC(N)=O)C(=O)N2C=C(/C=C/C(N)=O)CC2C1S(=O)O (stereo not shown) [R1=CONH2, R2=COCH3, R3=SO2 H, 5,10,11,11a-tetrahydro-10-acetyl-9-carbamyloxy-8-methyl-5-oxo-11-sulfino-1H-pyrrolo[2,1-c][1,4]benzodiazepin-2-acrylamide]",LD50 at 504 h,[1],2.84 mg/kg
"CC(=O)Oc1c(C)ccc2c1N(C(C)=O)C(S(=O)(=O)O)C1CC(/C=C/C(N)=O)=CN1C2=O (stereo not shown) [R1=COCH3, R2=COCH3, R3=SO3 Na]",LD50 at 504 h,[1],3.04 mg/kg
"Cc1ccc2c(c1O)NC(S(=O)(=O)O)C1CC(/C=C/C(N)=O)=CN1C2=O (stereo not shown) [R1=H, R2=H, R3=SO3 Na]",LD50,dd-strain male mice,2.31 mg/kg
"Cc1ccc2c(c1OC(N)=O)NC(S(=O)(=O)O)C1CC(/C=C/C(N)=O)=CN1C2=O (stereo not shown) [R1=CONH2, R2=H, R3=SO3 H, 5,10,11,11a-Tetrahydro-9-carbamyloxy-8-methyl-5-oxo-11-sulfo-1H-pyrrolo[2,1-c][1,4]benzodiazepin-2-acrylamide]",LD50 at 504 h,[1],2.4 mg/kg
"CC(=O)N1c2c(ccc(C)c2OC(N)=O)C(=O)N2C=C(/C=C/C(N)=O)CC2C1S(=O)(=O)O (stereo not shown) [R1=CONH2, R2=COCH3, R3=SO3 H, 5,10,11,11a-Tetrahydro-10-acetyl-9-carbamyloxy-8-methyl-5-oxo-11-sulfo-1H-pyrrolo[2,1-c][1,4]benzodiazepin-2-acrylamide]",LD50 at 504 h,[1],2.8 mg/kg
"CC(=O)Oc1c(C)ccc2c1N(C(C)=O)C(S(=O)O)C1CC(/C=C/C(N)=O)=CN1C2=O (stereo not shown) [R1=COCH3, R2=COCH3, R3=SO2 H, 5,10,11,11a-tetrahydro-9-acetoxy-10-acetyl-8-methyl-5-oxo-11-sulfino-1H-pyrrolo-[2,1-c][1,4]benzodiazepin-2-acrylamide]",LD50,dd-strain male mice,2.62 mg/kg
"Cc1ccc2c(c1O)NC(S(=O)O)C1CC(/C=C/C(N)=O)=CN1C2=O (stereo not shown) [R1=H, R2=H, R3=SO2 K]",LD50,dd-strain male mice,2.31 mg/kg
"CC(=O)Oc1c(C)ccc2c1NC(S(=O)O)C1CC(/C=C/C(N)=O)=CN1C2=O (stereo not shown) [R1=COCH3, R2=H, R3=SO2 H, 5,10,11,11a-Tetrahydro-9-acetoxy-8-methyl-5-oxo-11-sulfino-1H-pyrrolo[2,1-c][1,4]benzodiazepin-2-acrylamide]",LD50 at 504 h,[1],2.54 mg/kg
"COC(=O)Oc1c(C)ccc2c1NC(S(=O)O)C1CC(/C=C/C(N)=O)=CN1C2=O (stereo not shown) [R1=COOCH3, R2=H, R3=SO2 H]",LD50 at 504 h,[1],2.56 mg/kg
"Cc1ccc2c(c1O)NC(S(=O)O)C1CC(/C=C/C(N)=O)=CN1C2=O (stereo not shown) [R1=H, R2=H, R3=SO2 H, 5,10,11,11a-tetrahydro-9-hydroxy-8-methyl-5-oxo-11-sulfino-1H-pyrrolo[2,1-c][1,4]-benzodiazepin-2-acrylamide]",LD50 at 504 h,[1],2.18 mg/kg
"CC(=O)Oc1c(C)ccc2c1N(C(C)=O)C(S(=O)(=O)O)C1CC(/C=C/C(N)=O)=CN1C2=O (stereo not shown) [R1=COCH3, R2=COCH3, R3=SO3 H, 5,10,11,11a-Tetrahydro-9-acetoxy-10-acetyl-8-methyl-5-oxo-11-sulfo-1H-pyrrolo[2,1-c][1,4]benzodiazepin-2-acrylamide]",LD50,dd-strain male mice,2.81 mg/kg
"COC1Nc2c(ccc(C)c2O)C(=O)N2C=C(/C=C/C(N)=O)CC12 (single isomer, unassigned) [P""B""A""]",antitumor activity,[2],very strong antitumor activity
same,antibacterial activity,[3],antibacterial and antitumor activities are exhibited
same,"toxicity, particularly cardiotoxicity",[4],"strong toxicity, particularly cardiotoxicity"
